Data set [1] has as its system PC-3M. Kind of data set: Antiproliferative activity against human PC-3M cells incubated for 24 hrs by MTT assay. Type of data set: functional, cell-based.
A short description of data set [2]: Antiproliferative activity against rat PA-III cells incubated for 24 hrs by MTT assay. Type of data set: functional, cell-based. On the technique in general: Tetrazolium dyes change colour on reduction, which living cells bring about.
The subject of data set [3] is NCI-H460. Kind of data set: Antitumor activity against human NCI-H460 cells xenografted in athymic nude mouse assessed as tumor growth inhibition at 10 mg/kg, iv administered every 2 days and measured after 2 weeks. The conditions noted are these: NCI-H460, 336 h, read-out: TGI. It counts as functional. For orientation: A xenograft is tissue or cells of one species grown in another, often human tumour cells in immunodeficient mice.

Data set [4] relates to NCI-H460. Kind of data set: Inhibition of epithelial mesenchymal transition in human NCI-H460 cells assessed as decrease in N-cadherin protein expression by Western blotting analysis. It counts as functional, cell-based. For orientation: A western blot detects proteins with antibodies after separation by electrophoresis.
For data set [5], the system named is NCI-H460. Kind of data set: Antitumor activity against human NCI-H460 cells xenografted in athymic nude mouse assessed as change in tumor volume at 10 mg/kg, iv administered every 2 days and measured after 2 weeks. Type of data set: functional, organism-based.
Data set [6] can be described thus: Toxicity in male athymic nude mouse assessed as alveolar wall hyperplasia at 10 mg/kg, iv administered every 2 days and measured after 2 weeks by H and E staining based analysis. Type of data set: organism-based. The conditions noted are these: in vivo, 336 h.
For data set [7], the system named is NCI-H460. Kind of data set: Upregulation of gamma-H2AX expression in human NCI-H460 cells by Western blot analysis. Type of data set: functional, cell-based.
For data set [8], the system named is NCI-H460. Kind of data set: Induction of apoptosis in human NCI-H460 cells assessed as apoptosis rate at 500 nM incubated for 24 hrs by annexin V-FITC/PI staining based flow cytometry analysis relative to control. Type of data set: functional.
Data set [9] relates to NCI-H460. Kind of data set: Anti-tumor activity against human NCI-H460 cells assessed as cell viability incubated for 48 hrs by CCK-8 assay. Type of data set: functional, cell-based. The conditions noted are these: NCI-H460, 48 h.
Data set [10] has as its system NCI-H460. Kind of data set: Antitumor activity against human NCI-H460 cells xenografted in athymic nude mouse assessed as change in tumor weight at 10 mg/kg, iv administered every 2 days and measured after 2 weeks. Type of data set: functional, organism-based.
The test system of data set [11] is NCI-H460. Kind of data set: Inhibition of epithelial mesenchymal transition in human NCI-H460 cells assessed as increase in E-cadherin protein expression by Western blotting analysis. It counts as functional, cell-based.

This is an account of results in ChEMBL document CHEMBL6103645, “Modular Synthesis of Bioactive Selenoheterocycles for Efficient Cancer Therapy via Electrochemical Selenylation/Cyclization” (J Med Chem, 2025).

Each structure is given as a SMILES string. Activity calls are given as the source filed them. No cut-off for these calls is given here.

The IC50 is the concentration at which inhibition is half-maximal. Consider `Cc1ccc(-c2cc(C(F)(F)F)nn2-c2ccc(S(N)(=O)=O)cc2)cc1` [CELECOXIB], for which the IC50 in [1] and in data set [2] was more than 20 µM in each case.

`N#C[Se]Cc1cc(-c2ccccc2)n(-c2ccc(S(N)(=O)=O)cc2)n1` yielded an IC50 in [2] of 5 µM.

On to `CC[C@@]1(O)C(=O)OCc2c1cc1n(c2=O)Cc2cc3ccccc3nc2-1` [CAMPTOTHECIN], for which the inhibition in vivo at 10 mg/kg in data set [3] is 66%. For the same compound, the inhibition entry in [4] and in [11] was “Active” throughout. The outcome in data set [5], in [7] and in data set [10] was Active. Moreover, the Activity result is given as “Toxic” in data set [6] and 39.1% in data set [8]. Further, the half-maximal inhibitory concentration (IC50) in data set [9] worked out at 2.46 µM.
